{
  "source": "patent US6362222B1",
  "about": "“Analgesic use of podophyllotoxin for treating pain conditions in female genital organs” (priority 1998, dated 2002)",
  "key": {"[1]": {"test": "Topical podophyllotoxin on vaginal peaks in patients with post-hysterectomic pain", "type": "in vivo, human", "protocol": "In accordance with the invention podophyllotoxin can also be used for intense tenderness to touch and palpation in the upper vaginal corners with post-hysterectomic pain, sometimes also with bleed in. After the rinse with acetum the vaginal corners are treated with podophyllotoxin, and vaginal ointment can be applied on the treated areas if necessary. The treatment can be repeated at least three times if necessary, at intervals of either one day or one month.\nAt the end of about three years the patient returned to the gynecologic outpatient clinic and complained about a strong continual pain in the lower part of the abdomen and a pushing feeling in the rectum. […] The vaginal peaks were treated locally with podophyllotoxin three times at two days' intervals. Especially the right corner was very tender to palpation. After the third treatment there was no more pain.\n(§1) The patient hade undergone hysterectomy, suffered from pain, a small muscular tumour and adhesions after endometriosis. The patient had suffered from incontinence for about a year. There had been no distinct inflammations. […] They were pencilled. Nevertheless, after about six months the patient returned to the clinic because of pain in the lower abdomen, the back and a sting in the urinary bladder. The sore vaginal peaks were pencilled with podophyllotoxin once more.\nPost-hysterectomic pain was examined in 26 patients. The vagina was first washed with a 3% acetum solution and then the vaginal peaks were pencilled with podophyllotoxin. A vaginal ointment was used occasionally on the pencilled areas. The treatment was repeated 1 to 3 times at about one month's intervals."}, "[2]": {"test": "Topical podophyllotoxin on sore vestibular (Bartholin's) glands in vulvodynia patients", "type": "in vivo, human", "description": "In the treatment, the vagina is first washed with a 3% acetum solution. The vulva, especially Batrholin's glands are examined by means of colposcopy. A second object is a slightly uneven, netlike area located obliquely behind, at the sides of the outer mouth of the urethra. Sometimes small hyperemetic cavities, small vestibular glands are found in the vulvar region, which are not sore in a healthy person. In vulvodynia they are typically very tender to touch and red, ligulate and with embossed edges. In vulvodynia Bartholin's gland orifices are sometimes closed. These points often start bleeding at palpation.\nIn accordance with the invention, the sore glands are pencilled with podophyllotoxin. Any commonly used vaginal ointment is applied on the pencilled area. The treatment is repeated twice if necessary at an interval of about one month. The treatment is usually not effective at once, however, in the course of typically two weeks there is no more pain.\nThe gland orifices were pencilled with a 5% podophyllotoxin solution. The pain during intercourse disappeared at the end of a couple of weeks. After about two years the pain recurred. Podophyllotoxin was applied to the gland orifices anew. At the end of two months the lefthand, still tender gland orifice was pencilled once more.\nThe patient had undergone hysterectomy because of prolapse and extended cervix. However, the prolapse recurred (enterocele), and was resectioned from below. After the surgery the patient suffered from vaginal pain, which was stronger on the left side. There was no inflammation, the pain persisted. A gynecologist made repeated examinations, found nothing wrong and consulted a neurologist, who made the diagnosis inexplicable postoperative pain. […] Podophyllotoxin was applied twice at one month's interval and once more the following day.\nas §1\nA total of 151 patients were treated over a period of two years, and among these 75% had typical vulvodynia symptoms and the remainder atypical other symptoms, such as disorders of the urinary tracts, vaginal dryness, itching and recurrent candidosis. However, intense tenderness to touch of the vestibular glands was typical for all of the patients.\nAll of the patients were treated in the same way: first the vagina was washed with a 3% solution of acetum, the sore glands were treated with podophyllotoxin and vaginal ointment was applied on this. 46 patients were treated only once and 6 patients were treated 10 times, the patients were treated 2.6 times on the average."}},
  "data": [
    {"smiles": "COc1cc([C@@H]2c3cc4c(cc3[C@H](O)[C@H]3COC(=O)[C@H]23)OCO4)cc(OC)c1OC", "note": "[podophyllotoxin]", "values": [
      {"measurement": "pain after treatment of vaginal peaks", "setting": "[1]; Example 2, same patient about three years later, vaginal peaks treated three times at two days' intervals, after the third treatment", "value": "no more pain"},
      {"measurement": "incontinence after treatment of vaginal peaks", "setting": "[1]; Example 3, control one month after last pencilling of vaginal peaks", "value": "disappeared"},
      {"measurement": "patient's state at control after treatment of vaginal peaks", "setting": "[1]; Example 3, sore vaginal peaks pencilled again about six months later, control one month later", "value": "completely recovered"},
      {"measurement": "number of patients remaining free of symptoms during the control period", "setting": "[1]; Example 5, 26 patients, vaginal peaks pencilled 1 to 3 times at about one month's intervals, maximum control period 9 months", "value": 17, "unit": "patients"},
      {"measurement": "results of treatment (general statement)", "setting": "[1]; upper vaginal corners treated, repeated at least three times if necessary", "value": "extremely good"},
      {"measurement": "pain during intercourse after treatment", "setting": "[2]; Example 1, one patient, Bartholin's gland orifices pencilled with 5% podophyllotoxin solution, at the end of a couple of weeks", "value": "disappeared"},
      {"measurement": "pain after repeat treatment of recurrence", "setting": "[2]; Example 1, recurrence after about two years, gland orifices pencilled anew, left orifice once more after two months, in the course of a couple of weeks", "value": "disappeared completely"},
      {"measurement": "symptoms after treatment", "setting": "[2]; Example 2, one patient, postoperative vaginal pain, left Bartholin's gland and right side of urethra, applied twice at one month's interval and once more the following day", "value": "free of symptoms"},
      {"measurement": "pain in the glands after treatment", "setting": "[2]; Example 3, one patient, sore glands in the introitus pencilled once, after one month", "value": "no pain in the glands"},
      {"measurement": "number of patients free of symptoms", "setting": "[2]; Example 4, 151 patients treated, 2.6 times on average, about two weeks after the treatment", "value": "about one hundred"},
      {"measurement": "number of patients considered to have probably recovered", "setting": "[2]; Example 4, 151 patients treated, follow-up maximum more than 5 years", "value": 40, "unit": "patients"},
      {"measurement": "immediate effect on pain", "setting": "[2]; directly after treatment, before relief in the course of a couple of weeks", "value": "increases the pain"},
      {"measurement": "pain after treatment (general statement)", "setting": "[2]; sore glands pencilled, repeated twice if necessary at about one month interval, in the course of typically two weeks", "value": "no more pain"},
      {"measurement": "pain at small red cavities of the front part of the vulva", "setting": "[2]; vestibulitis type condition", "value": "relieved"}
    ]}
  ]
}
